Assay: Pharmacokinetic (PK) test
Format: in vivo
Details: beagle dog, 100 mg, PO, capsule
Description: A pharmacokinetic (PK) experiment was performed on the amorphous compound of Example 1.
The powder of the amorphous compound of Example 1 was filled into a capsule in an amount of 100 mg, and the capsule was orally administered to a beagle dog at 100 mg once a day, and then the biokinetics of the drug was confirmed.
Specifically, 100 mg of the amorphous compound was orally administered to the beagle dog, and blood was collected at a predetermined time, so as to measure a concentration of (S)-4-((1-(4,8-dichloro-1-oxo-2-phenyl-1,2-dihydroisoquinoline-3-yl)ethyl)amino)pyrido[2,3-d]pyrimidine-5(8H)-one. With respect to pharmacokinetic parameters, the BA Calc 2007 program was used to calculate an area under the plasma concentration-time curve from dosing time to final plasma concentration quantification time t (AUCt), an area under the plasma concentration-time curve from dosing time to infinite time (AUCi), peak plasma concentration (Cmax), time for peak plasma concentration (Tmax), and terminal elimination half-life (t1/2). As a result, a significance between substances was confirmed by Student t-test (SPSS) at a 95% confidence interval, and the results thereof are shown in table 4 below.

C[C@H](Nc1ncnc2[nH]ccc(=O)c12)c1c(Cl)c2cccc(Cl)c2c(=O)n1-c1ccccc1 [Example 1, (S)-4-((1-(4,8-dichloro-1-oxo-2-phenyl-1,2-dihydroisoquinoline-3-yl)ethyl)amino)pyrido[2,3-d]pyrimidin-5(8H)-one]
blood concentration: high blood concentration

— patent publication US20220227759A1, “AMORPHOUS PI3K INHIBITOR AND PHARMACEUTICAL COMPOSITION COMPRISING SAME” (BORYUNG PHARMACEUTICAL CO., LTD, priority 2019, published 2022)
